Experimental data taken from patent US8394434B2, “SCF extract containing cardiac glycoside” (Phoenix Biotechnology, Inc., priority 2005, dated 2013).

How the values were obtained:
PANC-1 cells = assay: Cell cycle analysis by flow cytometry; assay type: cell-based, human; details: 25 nM oleandrin or extract equivalent to 25 nM oleandrin, 24 hrs
Experimental: The effect of oleandrin, the hot-water and SCF extract upon cell cycle changes of PANC-1 cells treated therewith was evaluated over a 24-hour period. Panc-1 cells were treated with 25 nM of oleandrin alone or the amount of hot water extract or supercritical CO2 extract of oleander which was equivalent to 25 nM of oleandrin for 24 hrs. Cell cycle analysis was carried out by flow cytometry. Cell division consists of two consecutive processes, mainly characterized by DNA replication and then segregation of replicated chromosomes into two separate cells. Replication of DNA occurs in a specific part of the interphase called S phase. S phase is preceded by a gap called G1 during which the cell is preparing for DNA synthesis. This is […] then followed by a gap called G2 during which the cell prepares for mitosis. Then this is followed with the mitosis phase, or M phase. G1, S, G2 and M phases are the traditional subdivisions of the standard cell cycle. Cells which are in a G2/M block such as that induced by the supercritical CO2 extract cannot undergo division.
The data are expressed as the relative percentage of cells in a given phase of the cell cycle.

Human melanoma BRO cells = assay: Cytotoxicity comparison, crystal violet staining (Example 10); assay type: cell-based; details: presented as μM oleandrin concentration in the extract, 72 hr incubation
Experimental: (§1) The extracts also differ in their relative performance as determined by efficacy against several tumor cell lines (Example 10). Oleandrin-containing samples were prepared to contain the same amount of oleandrin although the concentration of oleandrin in each sample varied due to the differences in the concentration of in the extracts. The data obtained are summarized in the table below and in FIGS. 4 and 5.
(§2) The cytotoxic potential of both extracts are compared directly with that of oleandrin. The samples contained the same amounts of oleandrin even though their concentration of oleandrin differed due to the concentration of oleandrin present in the extracts.
(§3) BRO (human melanoma) and Panc-1 (human pancreatic cancer) cells (8×10^3/well) were plated in a 96 well plate and allowed to attach overnight. Drug or extracts were then added to the cells. After 72 hr of incubation, relative cell proliferation (relative to control untreated cells) was assessed by crystal violet staining method.

[1] = system: Human pancreatic cancer PANC-1 cells; assay: as above; assay type: cell-based; details: presented as μM oleandrin concentration in the extract, 72 hr incubation
Experimental: as §1, §2, §3

[2] = system: Akt (pAkt) in Panc-1 cells; assay: Phosphorylation of Akt, gel electropherogram (FIG. 3); assay type: cell-based, human
Excerpt: (§4) FIG. 3 depicts a photograph of the relevant bands of a gel electropherogram obtained as part of an assay comparing the activity of oleandrin, hot-water extract and the SCF extract of the invention toward inhibition of phosphoryation (active form) of Akt and augmentation of (phosphorylation) of Erk.
(§5) Phosphorylation of the serine/threonine kinase known as Akt provides tumor cells with enhanced survival capability. Increased Akt activity promotes survival of tumor cells that would normally undergo death by apoptosis. In addition, pAkt is involved in cell proliferation, angiogenesis, genome instability and cell invasion and migration (Yoeli-Lerner M and Toker A. Akt/PKB Signaling in Cancer. Cell Cycle 5:603-605, 2006). All of these responses contribute to initiation and progression. Further evidence of the importance of Akt signaling in cancer comes from studies which have detected over-expression and hyper-activation (through phosphorylation) of Akt in a wide range of human tumors, and this is often linked with poor prognosis. The relative activity of the hot-water and SCF extract on critical cell signaling proteins in human pancreatic cancer (Panc-1) cells were also compared. […] The relative ability of the supercritical CO2 extract to inhibit pAkt expression is much greater than that of oleandrin or the hot water extract of Nerium oleander. […]

[3] = system: ERK (pERK) in Panc-1 cells; assay: Expression of pERK, gel electropherogram (FIG. 3); assay type: cell-based, human
Excerpt: as §4, §5

CO[C@H]1C[C@H](O[C@H]2CC[C@@]3(C)[C@H](CC[C@@H]4[C@@H]3CC[C@]3(C)[C@@H](C5=CC(=O)OC5)[C@@H](OC(C)=O)C[C@]43O)C2)O[C@@H](C)[C@@H]1O [Oleandrin, oleandrin]
G1 phase, relative percentage of cells (PANC-1 cells): 30.5% | G2/M phase, relative percentage of cells (PANC-1 cells): 26.2% | S phase, relative percentage of cells (PANC-1 cells): 43.3% | IC50 (Human melanoma BRO cells): 0.017 µM | IC50 [1]: 0.01 µM | inhibition of PI3 Kinase resulting in reduction of phosphorylation of Akt [2]: reduction of phosphorylation of Akt | expression of pERK [3]: dramatically increased
